PubChem BioAssay AID256 (DTP/NCI, 2004)
Values joined by “and” are separate entries in the source; they are usually repeats but may differ in a detail not shown here. Identical values can stand only once. Inconclusive results and toxic doses are left out. The calls were made as follows: active = survival T/C of 150% or more; inactive = T/C below 125% in these data.

System: CD2F1 mice, L1210 leukemia ip, survival T/C
Assay: NCI In Vivo Anticancer Drug Screen. Data for tumor model L1210 Leukemia (intraperitoneal) in CD2F1 (CDF1) mice
Conditions: higher = longer survival
In short: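 Compound-dosed mice with transplantable tumor versus matched vehicle controls; endpoint ratio T/C reported.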

[1] = endpoint: mean survival time, dose: 100.0 mg/kg/injection, schedule: Q04DX003 (ip), vehicle: saline with Tween-80
[2] = endpoint: mean survival time, dose: 200.0 mg/kg/injection, schedule: Q04DX003 (ip), vehicle: saline with Tween-80
[3] = endpoint: mean survival time, dose: 400.0 mg/kg/injection, schedule: Q04DX003 (ip), vehicle: saline with Tween-80
[4] = endpoint: mean survival time, dose: 25.0 mg/kg/injection, schedule: Q04DX003 (ip), vehicle: saline
[5] = endpoint: mean survival time, dose: 50.0 mg/kg/injection, schedule: Q04DX003 (ip), vehicle: saline
[6] = endpoint: mean survival time, dose: 100.0 mg/kg/injection, schedule: Q04DX003 (ip), vehicle: saline
[7] = endpoint: mean survival time, dose: 100.0 mg/kg/injection, schedule: Q01DX001 (ip), vehicle: saline
[8] = endpoint: mean survival time, dose: 200.0 mg/kg/injection, schedule: Q01DX001 (ip), vehicle: saline
[9] = endpoint: mean survival time, dose: 400.0 mg/kg/injection, schedule: Q01DX001 (ip), vehicle: saline
[10] = endpoint: mean survival time, dose: 12.5 mg/kg/injection, schedule: Q01DX009 (ip), vehicle: saline with Tween-80
[11] = endpoint: mean survival time, dose: 25.0 mg/kg/injection, schedule: Q01DX009 (ip), vehicle: saline with Tween-80
[12] = endpoint: mean survival time, dose: 50.0 mg/kg/injection, schedule: Q01DX009 (ip), vehicle: saline with Tween-80

Measured: T/C

O=C1c2ccccc2C(=O)N1CCBr
inactive: endpoint: mean survival time, dose: 100.0 mg/kg/injection, schedule: Q01DX001 (ip), vehicle: saline with Tween-80 102 % of control | endpoint: mean survival time, dose: 200.0 mg/kg/injection, schedule: Q01DX001 (ip), vehicle: saline with Tween-80 109 % of control | endpoint: mean survival time, dose: 400.0 mg/kg/injection, schedule: Q01DX001 (ip), vehicle: saline with Tween-80 111 % of control

CC(CO)CCC(=O)C(C)C1CC2(C)CCC3C(CCC4CC(O)CCC43C)C2C12SCCS2 (stereo not drawn)
inactive: [1] 98 % of control | [2] 102 % of control | [3] 98 % of control

CN(CCN1CCCCC1)C(=O)C(O)(c1ccccc1)c1ccccc1
inactive: endpoint: mean survival time, dose: 75.0 mg/kg/injection, schedule: Q01DX001 (ip), vehicle: saline 104 % of control | endpoint: mean survival time, dose: 150.0 mg/kg/injection, schedule: Q01DX001 (ip), vehicle: saline 98 % of control

[NH-]C(CO)C(=O)O.[NH-]C(CO)C(=O)O.[Pt+2] (stereo not drawn)
inactive: endpoint: mean survival time, dose: 0.78 mg/kg/injection, schedule: Q04DX003 (ip), vehicle: saline with Tween-80 100 % of control | endpoint: mean survival time, dose: 1.56 mg/kg/injection, schedule: Q04DX003 (ip), vehicle: saline with Tween-80 92 % of control | endpoint: mean survival time, dose: 3.13 mg/kg/injection, schedule: Q04DX003 (ip), vehicle: saline with Tween-80 95 % of control | endpoint: mean survival time, dose: 3.13 mg/kg/injection, schedule: Q04DX003 (ip), vehicle: water 100 % of control | endpoint: mean survival time, dose: 6.25 mg/kg/injection, schedule: Q04DX003 (ip), vehicle: saline with Tween-80 97 % of control | endpoint: mean survival time, dose: 6.25 mg/kg/injection, schedule: Q04DX003 (ip), vehicle: saline 102 % of control | endpoint: mean survival time, dose: 6.25 mg/kg/injection, schedule: Q04DX003 (ip), vehicle: water 103 % of control | endpoint: mean survival time, dose: 12.5 mg/kg/injection, schedule: Q04DX003 (ip), vehicle: saline with Tween-80 94 % of control | endpoint: mean survival time, dose: 12.5 mg/kg/injection, schedule: Q04DX003 (ip), vehicle: saline 103 % of control | endpoint: mean survival time, dose: 12.5 mg/kg/injection, schedule: Q04DX003 (ip), vehicle: water 101 % of control | [4] 100 % of control | endpoint: mean survival time, dose: 25.0 mg/kg/injection, schedule: Q04DX003 (ip), vehicle: water 91 % of control | [5] 103 % of control | endpoint: mean survival time, dose: 50.0 mg/kg/injection, schedule: Q04DX003 (ip), vehicle: water 94 % of control | [6] 103 % of control | endpoint: mean survival time, dose: 100.0 mg/kg/injection, schedule: Q04DX003 (ip), vehicle: water 88 % of control | endpoint: mean survival time, dose: 200.0 mg/kg/injection, schedule: Q04DX003 (ip), vehicle: saline 86 % of control | endpoint: mean survival time, dose: 200.0 mg/kg/injection, schedule: Q04DX003 (ip), vehicle: water 88 % of control

CCOCCSc1ccccc1
inactive: [7] 104 % of control | [8] 102 % of control | [9] 102 % of control

COc1cn(C2OC(CO)C(O)C2O)c(=O)nc1N (stereo not drawn)
inactive: endpoint: median survival time, dose: 25.0 mg/kg/injection, schedule: Q01DX005 (ip), vehicle: saline 114 % of control | endpoint: median survival time, dose: 50.0 mg/kg/injection, schedule: Q01DX005 (ip), vehicle: saline 111 % of control | endpoint: median survival time, dose: 100.0 mg/kg/injection, schedule: Q01DX005 (ip), vehicle: saline 114 % of control

COc1ccc(-n2c(=S)[nH]c3ccc(C)cc3c2=O)cc1
inactive: endpoint: mean survival time, dose: 100.0 mg/kg/injection, schedule: Q01DX009 (ip), vehicle: saline with Tween-80 97 % of control | endpoint: mean survival time, dose: 200.0 mg/kg/injection, schedule: Q01DX009 (ip), vehicle: saline with Tween-80 100 % of control | endpoint: mean survival time, dose: 400.0 mg/kg/injection, schedule: Q01DX009 (ip), vehicle: saline with Tween-80 91 % of control

O=C1c2ccccc2C(C(O)(C(F)(F)F)C(F)(F)F)c2ccccc21
inactive: [10] 100 % of control | [11] 98 % of control | [12] 96 % of control

CC(C)(C)OC1C2C=CC1C1C2C2(Cl)C(Cl)=C(Cl)C1(Cl)C21OCCO1 (stereo not drawn)
inactive: endpoint: mean survival time, dose: 41.25 mg/kg/injection, schedule: Q04DX002 (ip), vehicle: Klucel (hydroxypropylcellulose) (HPC) 98 % of control | endpoint: mean survival time, dose: 50.0 mg/kg/injection, schedule: Q04DX002 (ip), vehicle: Klucel (hydroxypropylcellulose) (HPC) 97 % of control | endpoint: mean survival time, dose: 82.5 mg/kg/injection, schedule: Q04DX002 (ip), vehicle: Klucel (hydroxypropylcellulose) (HPC) 100 % of control | endpoint: mean survival time, dose: 100.0 mg/kg/injection, schedule: Q04DX002 (ip), vehicle: Klucel (hydroxypropylcellulose) (HPC) 98 % of control | endpoint: mean survival time, dose: 165.0 mg/kg/injection, schedule: Q04DX002 (ip), vehicle: Klucel (hydroxypropylcellulose) (HPC) 98 % of control | endpoint: mean survival time, dose: 200.0 mg/kg/injection, schedule: Q04DX002 (ip), vehicle: Klucel (hydroxypropylcellulose) (HPC) 98 % of control | endpoint: mean survival time, dose: 330.0 mg/kg/injection, schedule: Q04DX002 (ip), vehicle: Klucel (hydroxypropylcellulose) (HPC) 98 % of control | endpoint: mean survival time, dose: 400.0 mg/kg/injection, schedule: Q04DX002 (ip), vehicle: Klucel (hydroxypropylcellulose) (HPC) 97 % of control

Cc1ccc(C)c(Br)c1C
inactive: endpoint: mean survival time, dose: 100.0 mg/kg/injection, schedule: Q01DX005 (ip), vehicle: saline with Tween-80 97 % of control | endpoint: mean survival time, dose: 200.0 mg/kg/injection, schedule: Q01DX005 (ip), vehicle: saline with Tween-80 101 % of control | endpoint: mean survival time, dose: 400.0 mg/kg/injection, schedule: Q01DX005 (ip), vehicle: saline with Tween-80 97 % of control

CC(=O)CC(=O)Nc1ccccc1
inactive: [10] 101 % of control | [11] 97 % of control | [12] 97 % of control

O=C(O)c1ccc(C(=O)O)nc1
inactive: [7] 87 % of control | [8] 95 % of control | [9] 97 % of control

COC1OC(COS(=O)(=O)c2ccc(C)cc2)C(SC#N)C1OS(=O)(=O)c1ccc(C)cc1 (stereo not drawn)
inactive: endpoint: mean survival time, dose: 50.0 mg/kg/injection, schedule: Q01DX001 (ip), vehicle: saline 91 % of control | [7] 89 % of control | [8] 95 % of control | [9] 95 % of control

OC1(c2ccccc2)C(N2CCOCC2)=C(c2ccccc2)c2ccccc21 (stereo not drawn)
inactive: [1] 105 % of control | [2] 100 % of control | [3] 95 % of control

C=C1C(O)C2(O)OCC34C(CC5C(C)=CC(=O)C(O)C5(C)C23)OC(=O)C(OC(=O)C(C)(O)CC)C14 (stereo not drawn)
inactive: endpoint: mean survival time, dose: 0.25 mg/kg/injection, schedule: Q01DX009 (ip), vehicle: saline + alcohol 98 % of control | endpoint: mean survival time, dose: 0.5 mg/kg/injection, schedule: Q01DX009 (ip), vehicle: saline + alcohol 100 % of control | endpoint: mean survival time, dose: 1.0 mg/kg/injection, schedule: Q01DX009 (ip), vehicle: saline + alcohol 102 % of control | endpoint: mean survival time, dose: 2.0 mg/kg/injection, schedule: Q01DX009 (ip), vehicle: saline + alcohol 90 % of control

C[n+]1ccccc1/C=N/O
inactive: [4] 96 % of control | [5] 94 % of control | [6] 93 % of control and 97 % of control

Nc1ncnc(N)c1NC(=O)c1cccc(Cl)c1
inactive: endpoint: mean survival time, dose: 25.0 mg/kg/injection, schedule: Q04DX003 (ip), vehicle: saline with Tween-80 100 % of control | endpoint: mean survival time, dose: 50.0 mg/kg/injection, schedule: Q04DX003 (ip), vehicle: saline with Tween-80 100 % of control | [1] 118 % of control and 108 % of control

O=C(O)C1OC(C(=O)O)C(C(=O)O)C1C(=O)O (stereo not drawn)
inactive: endpoint: mean survival time, dose: 75.0 mg/kg/injection, schedule: Q01DX001 (ip), vehicle: other 100 % of control | endpoint: mean survival time, dose: 150.0 mg/kg/injection, schedule: Q01DX001 (ip), vehicle: other 100 % of control | endpoint: mean survival time, dose: 300.0 mg/kg/injection, schedule: Q01DX001 (ip), vehicle: other 95 % of control

O=NN(CCCl)C(=O)Nc1ccccn1
inactive: endpoint: mean survival time, dose: 12.5 mg/kg/injection, schedule: Q01DX001 (ip), vehicle: other 101 % of control | endpoint: mean survival time, dose: 25.0 mg/kg/injection, schedule: Q01DX001 (ip), vehicle: other 94 % of control | endpoint: mean survival time, dose: 50.0 mg/kg/injection, schedule: Q01DX001 (ip), vehicle: other 101 % of control | endpoint: mean survival time, dose: 100.0 mg/kg/injection, schedule: Q01DX001 (ip), vehicle: other 96 % of control

CN(C)c1ccc(N=Nc2ccc([As](=O)(O)O)cc2)cc1
inactive: endpoint: mean survival time, dose: 6.25 mg/kg/injection, schedule: Q01DX009 (ip), vehicle: saline with Tween-80 91 % of control | endpoint: mean survival time, dose: 12.5 mg/kg/injection, schedule: Q01DX001 (ip), vehicle: saline with Tween-80 110 % of control | [10] 89 % of control

NC(=O)Nc1cc(NC(N)=O)cc(N(CCCl)CCCl)c1
inactive: endpoint: mean survival time, dose: 2.5 mg/kg/injection, schedule: Q01DX009 (ip), vehicle: Klucel (hydroxypropylcellulose) (HPC) 108 % of control | endpoint: mean survival time, dose: 5.0 mg/kg/injection, schedule: Q01DX009 (ip), vehicle: Klucel (hydroxypropylcellulose) (HPC) 111 % of control | endpoint: mean survival time, dose: 10.0 mg/kg/injection, schedule: Q01DX009 (ip), vehicle: Klucel (hydroxypropylcellulose) (HPC) 119 % of control

Nc1ccc(C(=O)CC(O)(C(F)(F)F)C(F)(F)F)cc1
inactive: [1] 113 % of control | [2] 111 % of control | [3] 113 % of control
